ChEMBL document CHEMBL4130486, “Design, synthesis and immunological evaluation of novel amphiphilic desmuramyl peptides” (Eur J Med Chem, 2017)
Active and inactive are the calls of the source. The rule behind the calls is not given here.

Legend:
THP-1 [1] = experiment: Immunomodulatory activity in human THP1 cells assessed as increase in LPS-induced ICAM1 expression at 1 to 32 uM uM incubated for 21 hrs by immunostaining and flow cytometry; format: functional, cell-based
THP-1 [2] = experiment: Immunomodulatory activity in PMA-differentiated human THP1 cells assessed as increase in ICAM1 expression by measuring fluorescence intensity at 20 uM incubated for 21 hrs by immunostaining and flow cytometry (reference value: 602.95 No unit); format: functional
THP-1 [3] = experiment: Immunomodulatory activity in PMA-differentiated human THP1 cells assessed as increase in TNFalpha production at 1 to 30 uM incubated for 24 hrs by ELISA; format: functional, cell-based
THP-1 [4] = experiment: Immunomodulatory activity in PMA-differentiated human THP1 cells assessed as increase in TNFalpha production by measuring TNFalpha level at 15 uM incubated for 24 hrs by ELISA; format: functional
THP-1 [5] = experiment: Immunomodulatory activity in human THP1 cells assessed as increase in ICAM1 expression at 20 uM incubated for 21 hrs by immunostaining and flow cytometry; format: functional, cell-based
THP-1 [6] = experiment: Immunomodulatory activity in PMA-differentiated human THP1 cells assessed as increase in TNFalpha production at 30 uM incubated for 24 hrs by ELISA; format: functional, cell-based
THP-1 [7] = experiment: Toxicity in PMA-differentiated human THP1 cells assessed as cell death at 0.1 to 64 uM by trypan blue dye based assay; conditions: thp-1, 64 µM
THP-1 [8] = experiment: (§1) Immunomodulatory activity in PMA-differentiated human THP1 cells assessed as increase in LPS-induced ICAM1 expression by measuring fluorescence intensity at =>16 uM pre-incubated for 1 hr before LPS stimulation and further incubated for 20 hrs by immunostaining and flow cytometry relative to LPS alone; format: functional, cell-based
THP-1 [9] = experiment: Immunomodulatory activity in human THP1 cells assessed as increase in LPS-induced ICAM1 expression at 16 uM uM incubated for 21 hrs by immunostaining and flow cytometry; format: functional
THP-1 [10] = experiment: Immunomodulatory activity in PMA-differentiated human THP1 cells assessed as increase in LPS-induced ICAM1 expression by measuring fluorescence intensity at 8 uM pre-incubated for 1 hr before LPS stimulation and further incubated for 20 hrs by immunostaining and flow cytometry relative to LPS alone; format: functional
THP-1 [11] = experiment: as §1, with “<=4” for “=>16”; format: functional, cell-based
THP-1 [12] = experiment: Immunomodulatory activity in PMA-differentiated human THP1 cells assessed as increase in LPS-induced ICAM1 expression by measuring fluorescence intensity at 20 uM pre-incubated for 1 hr before LPS stimulation and further incubated for 20 hrs by immunostaining and flow cytometry relative to LPS alone; format: functional, cell-based

Row | Compound | Activity (THP-1 [1]) | Flu intensity (THP-1 [2]) | Activity (THP-1 [3]) | Activity (THP-1 [4]) [pg/mL] | Activity (THP-1 [5]) | Activity (THP-1 [6]) | Activity (THP-1 [7]) | Activity (THP-1 [8]) | Activity (THP-1 [9]) | Activity (THP-1 [10]) | Activity (THP-1 [11]) | Activity (THP-1 [12])
1 | CCCCCCNC(=O)CC[C@@H](NC(=O)[C@H](C)NC(=O)COc1cccc(NCCCO)c1)C(N)=O | Active | 885.76 | Active | 3622 | Active | inactive | – | – | – | – | – | –
2 | CCCCCCNC(=O)CC[C@@H](NC(=O)[C@H](C)NC(=O)COc1cccc(N(CCCO)CCCO)c1)C(N)=O | Active | 777.29 | Active | 3606 | Active | inactive | Non-Toxic | inactive | <=46% | <=33% | Active | –
3 | CCCCOC(=O)[C@@H](CCC(N)=O)NC(=O)[C@H](C)NC(=O)[C@@H](C)O[C@H]1[C@H](O)[C@@H](CO)OC(O)[C@@H]1NC(C)=O (some centres not stated) [MURABUTIDE] | – | 1436.05 | – | 2694 | Active | inactive | – | – | – | – | – | Active
